This note sets out measurements from patent publication US20230365592A1 (Agios Pharmaceuticals, Inc., priority 2022, published 2023).

The structures appear in SMILES notation. Some results are limits rather than exact numbers.

In one experiment the target is T1, human PAH with the R408W mutation (Homo sapiens, UniProt P00439, R408W).
T1 construct: expressed in transfected cells
T1 sequence (P00439 1-452 R408W): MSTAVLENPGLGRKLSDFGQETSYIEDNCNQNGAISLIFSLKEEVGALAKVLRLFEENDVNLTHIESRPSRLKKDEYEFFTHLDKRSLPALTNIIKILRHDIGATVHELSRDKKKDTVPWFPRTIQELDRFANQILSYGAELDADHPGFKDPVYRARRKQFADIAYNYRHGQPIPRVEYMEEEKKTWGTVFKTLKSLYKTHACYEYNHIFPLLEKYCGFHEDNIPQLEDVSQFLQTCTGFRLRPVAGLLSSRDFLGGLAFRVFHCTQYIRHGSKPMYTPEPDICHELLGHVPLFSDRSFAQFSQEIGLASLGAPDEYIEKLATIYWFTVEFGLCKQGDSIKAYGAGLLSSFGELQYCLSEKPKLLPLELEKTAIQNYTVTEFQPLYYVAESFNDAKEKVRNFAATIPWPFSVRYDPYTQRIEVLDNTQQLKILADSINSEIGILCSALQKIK
The experiment in a line: Cell Based Phenylalanine Flux Assay.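 Also: after compound treatment, cells received sepiapterin plus isotope-labelled Phenylalanine for 4 hours, then labelled Tyrosine in the medium was quantified, 10-point 2-fold dilution series run in duplicate.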 The following applies: A375 cells expressing R408W PAH; 24 hrs with compound, then 20 µM sepiapterin and 800 µM 13C9,15N-Phenylalanine for 4 hours; 13C-Tyrosine by LC-MS; average where tested multiple times; read-out: AC50.
Broadly, the AC50 is the midpoint of the concentration-response curve, whichever way the signal moves. Take `O=C(c1nnc(-c2ccccn2)o1)N1CCc2[nH]cnc2C1c1cc2cc(C(F)(F)F)ccn2n1` (stereo not shown): the half-maximal activity concentration (AC50) lay in the range of 1000 to 5000 nM.

On to `Cn1ncnc1C(=O)N1CCc2[nH]cnc2C1c1cc2cccc(Cl)n2n1` (stereo not shown), for which the half-maximal activity concentration (AC50) is 1000 to 5000 nM.

In the case of `COc1cccn2nc(C3c4nc[nH]c4CCN3C(=O)c3cc(C(C)(C)C)nn3C)cc12` (stereo not shown), the AC50 lay in the range of 1000 to 5000 nM.

The same experiment, now with this note: A375 cells expressing human PAH R408W; 24 hrs compound incubation; 13C-Tyrosine by LC-MS; average where tested multiple times; read-out: AC50.
In the case of `CC(C)(F)c1ncc(C(=O)N2CCc3[nH]cnc3[C@H]2c2cc3c(C(F)F)cccn3n2)o1` [Example 2106, (S)-(4-(4-(difluoromethyl)pyrazolo[1,5-a]pyridin-2-yl)-1,4,6,7-tetrahydro-5H-imidazo[4,5-c]pyridin-5-yl)(2-(2-fluoropropan-2-yl)oxazol-5-yl)methanone], the concentration at half-maximal activity (AC50) is under 500 nM.

Still in this experiment, the particulars now being: A375 cells expressing human R408W PAH; 24 hrs compound incubation; 13C-Tyrosine by LC-MS; average where tested multiple times; read-out: AC50.
For `O=C(c1nnc(C2CCC2)o1)N1CCc2[nH]cnc2[C@@H]1c1cc2cccc(F)n2n1` [Example 1574, (R)-(5-cyclobutyl-1,3,4-oxadiazol-2-yl)(4-(7-fluoropyrazolo[1,5-a]pyridin-2-yl)-6,7-dihydro-1H-imidazo[4,5-c]pyridin-5(4H)-yl)methanone], the half-maximal activity concentration (AC50) fell in the range of 1000 to 5000 nM. The same measure, in the same setting: under `O=C(c1nnc(-c2ccn(C(F)F)n2)o1)N1CCc2[nH]cnc2[C@@H]1c1cc2cccc(C(F)(F)F)n2n1` [Example 1037, (R)-(5-(1-(difluoromethyl)-1H-pyrazol-3-yl)-1,3,4-oxadiazol-2-yl)(4-(7-(trifluoromethyl)pyrazolo[1,5-a]pyridin-2-yl)-6,7-dihydro-1H-imidazo[4,5-c]pyridin-5(4H)-yl)methanone] stands over 5000 nM; under `O=C(c1nnc(-c2ncccc2F)o1)N1CCc2[nH]cnc2[C@H]1c1cc2cccc(F)n2n1` [Example 1459, (S)-(4-(7-fluoropyrazolo[1,5-a]pyridin-2-yl)-6,7-dihydro-1H-imidazo[4,5-c]pyridin-5(4H)-yl)(5-(3-fluoropyridin-2-yl)-1,3,4-oxadiazol-2-yl)methanone], under 500 nM; under `Cc1cccn2nc([C@@H]3c4nc[nH]c4CCN3C(=O)c3nnc(C(C)C)o3)cc12` [Example 1450, (S)-(5-isopropyl-1,3,4-oxadiazol-2-yl)(4-(4-methylpyrazolo[1,5-a]pyridin-2-yl)-6,7-dihydro-1H-imidazo[4,5-c]pyridin-5(4H)-yl)methanone], under 500 nM. Still for that read-out and setting: in the case of `COCc1ccc2c(C(=O)N3CCc4[nH]cnc4[C@@H]3c3cc4c(C(F)(F)F)cccn4n3)cnn2c1` [Example 1549, (R)-(6-(methoxymethyl)pyrazolo[1,5-a]pyridin-3-yl)(4-(4-(trifluoromethyl)pyrazolo[1,5-a]pyridin-2-yl)-6,7-dihydro-1H-imidazo[4,5-c]pyridin-5(4H)-yl)methanone] it was 1000 to 5000 nM.

As for `Cc1cc(C(=O)N2CCc3[nH]cnc3[C@H]2c2cc3ccccn3n2)n(C)n1` [Example 892, (S)-(1,3-dimethyl-1H-pyrazol-5-yl)(4-(pyrazolo[1,5-a]pyridin-2-yl)-6,7-dihydro-1H-imidazo[4,5-c]pyridin-5(4H)-yl)methanone], the AC50 is under 500 nM. Take `O=C(c1oc(C2CC2)nc1C(F)F)N1CCc2[nH]cnc2[C@@H]1c1cc2ccccn2n1` [Example 633, (R)-(2-cyclopropyl-4-(difluoromethyl)oxazol-5-yl)(4-(pyrazolo[1,5-a]pyridin-2-yl)-6,7-dihydro-1H-imidazo[4,5-c]pyridin-5(4H)-yl)methanone]: the AC50 was over 5000 nM. Same read-out and setting: under `CC1(c2nnc(C(=O)N3CCc4[nH]cnc4[C@H]3c3cc4cccc(C(F)(F)F)n4n3)o2)CC1` [Example 1354, (S)-(5-(1-methylcyclopropyl)-1,3,4-oxadiazol-2-yl)(4-(7-(trifluoromethyl)pyrazolo[1,5-a]pyridin-2-yl)-6,7-dihydro-1H-imidazo[4,5-c]pyridin-5(4H)-yl)methanone] stands 500 to 1000 nM; under `Cc1cccn2nc([C@H]3c4nc[nH]c4CCN3C(=O)c3oc(C4(O)CC4)nc3C(F)F)cc12` [Example 1221, (R)-(4-(difluoromethyl)-2-(1-hydroxycyclopropyl)oxazol-5-yl)(4-(4-methylpyrazolo[1,5-a]pyridin-2-yl)-6,7-dihydro-1H-imidazo[4,5-c]pyridin-5(4H)-yl)methanone], 1000 to 5000 nM.
